From patent US12441726B2, “Compounds and uses thereof” (Foghorn Therapeutics Inc., priority 2020, dated 2025)

Columns and labels:
BRG-1 = BRG-1 (Homo sapiens, UniProt P51532); assay: ATPase catalytic activity assay (ADP-Glo), BRG-1; conditions: for Emax: 1 h, read-out: BRG1 Max % Inhibition, ADP-Glo, 30 nM BRG-1, 400 μM ATP
BRM = BRM (Homo sapiens, UniProt P51531); assay: ATPase catalytic activity assay (ADP-Glo), BRM; conditions: 30 nM BRM, 400 μM ATP; for IC50: BRM ATPase: IC50 (uM)
Sequence of BRM (P51531 whole entry): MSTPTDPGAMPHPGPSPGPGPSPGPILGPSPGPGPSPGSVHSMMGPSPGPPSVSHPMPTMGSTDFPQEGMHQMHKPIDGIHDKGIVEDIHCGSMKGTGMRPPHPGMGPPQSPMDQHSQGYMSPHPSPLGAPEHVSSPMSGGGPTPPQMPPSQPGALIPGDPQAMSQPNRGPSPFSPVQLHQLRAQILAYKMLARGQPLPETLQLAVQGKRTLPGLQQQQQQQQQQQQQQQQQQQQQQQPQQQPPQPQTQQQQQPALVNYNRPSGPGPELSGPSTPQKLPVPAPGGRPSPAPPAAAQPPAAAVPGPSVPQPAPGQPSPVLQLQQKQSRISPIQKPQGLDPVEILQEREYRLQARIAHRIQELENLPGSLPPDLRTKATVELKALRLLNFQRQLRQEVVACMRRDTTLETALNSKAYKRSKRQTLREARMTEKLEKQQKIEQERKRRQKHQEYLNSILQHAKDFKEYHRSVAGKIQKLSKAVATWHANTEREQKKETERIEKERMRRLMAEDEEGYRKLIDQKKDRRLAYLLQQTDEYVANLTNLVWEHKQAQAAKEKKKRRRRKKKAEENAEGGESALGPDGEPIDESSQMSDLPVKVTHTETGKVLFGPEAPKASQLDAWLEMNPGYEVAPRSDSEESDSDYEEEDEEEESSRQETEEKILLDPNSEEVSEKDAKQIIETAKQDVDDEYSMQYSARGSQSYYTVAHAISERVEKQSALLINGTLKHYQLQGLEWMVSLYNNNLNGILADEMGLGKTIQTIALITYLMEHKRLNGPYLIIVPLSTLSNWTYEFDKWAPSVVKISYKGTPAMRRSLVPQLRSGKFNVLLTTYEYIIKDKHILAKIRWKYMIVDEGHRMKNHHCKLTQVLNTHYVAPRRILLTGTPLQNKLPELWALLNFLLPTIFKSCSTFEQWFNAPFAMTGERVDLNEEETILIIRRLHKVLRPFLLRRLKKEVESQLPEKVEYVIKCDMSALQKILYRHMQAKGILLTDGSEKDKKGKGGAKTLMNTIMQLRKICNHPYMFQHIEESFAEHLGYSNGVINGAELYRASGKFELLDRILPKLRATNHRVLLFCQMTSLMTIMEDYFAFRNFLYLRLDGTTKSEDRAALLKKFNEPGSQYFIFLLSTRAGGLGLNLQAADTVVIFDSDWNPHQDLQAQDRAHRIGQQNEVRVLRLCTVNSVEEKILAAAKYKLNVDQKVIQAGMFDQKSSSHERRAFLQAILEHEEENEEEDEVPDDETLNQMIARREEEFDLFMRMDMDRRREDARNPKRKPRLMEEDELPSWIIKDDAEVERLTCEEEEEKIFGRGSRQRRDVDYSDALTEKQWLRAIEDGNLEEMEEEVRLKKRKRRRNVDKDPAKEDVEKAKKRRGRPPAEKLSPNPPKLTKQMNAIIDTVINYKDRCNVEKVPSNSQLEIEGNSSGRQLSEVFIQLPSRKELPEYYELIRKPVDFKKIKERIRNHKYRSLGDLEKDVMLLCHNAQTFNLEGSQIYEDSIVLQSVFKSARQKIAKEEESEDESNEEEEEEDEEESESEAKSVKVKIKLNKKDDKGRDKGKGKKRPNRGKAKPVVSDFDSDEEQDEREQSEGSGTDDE

Sequence of BRG-1 (P51532 whole entry): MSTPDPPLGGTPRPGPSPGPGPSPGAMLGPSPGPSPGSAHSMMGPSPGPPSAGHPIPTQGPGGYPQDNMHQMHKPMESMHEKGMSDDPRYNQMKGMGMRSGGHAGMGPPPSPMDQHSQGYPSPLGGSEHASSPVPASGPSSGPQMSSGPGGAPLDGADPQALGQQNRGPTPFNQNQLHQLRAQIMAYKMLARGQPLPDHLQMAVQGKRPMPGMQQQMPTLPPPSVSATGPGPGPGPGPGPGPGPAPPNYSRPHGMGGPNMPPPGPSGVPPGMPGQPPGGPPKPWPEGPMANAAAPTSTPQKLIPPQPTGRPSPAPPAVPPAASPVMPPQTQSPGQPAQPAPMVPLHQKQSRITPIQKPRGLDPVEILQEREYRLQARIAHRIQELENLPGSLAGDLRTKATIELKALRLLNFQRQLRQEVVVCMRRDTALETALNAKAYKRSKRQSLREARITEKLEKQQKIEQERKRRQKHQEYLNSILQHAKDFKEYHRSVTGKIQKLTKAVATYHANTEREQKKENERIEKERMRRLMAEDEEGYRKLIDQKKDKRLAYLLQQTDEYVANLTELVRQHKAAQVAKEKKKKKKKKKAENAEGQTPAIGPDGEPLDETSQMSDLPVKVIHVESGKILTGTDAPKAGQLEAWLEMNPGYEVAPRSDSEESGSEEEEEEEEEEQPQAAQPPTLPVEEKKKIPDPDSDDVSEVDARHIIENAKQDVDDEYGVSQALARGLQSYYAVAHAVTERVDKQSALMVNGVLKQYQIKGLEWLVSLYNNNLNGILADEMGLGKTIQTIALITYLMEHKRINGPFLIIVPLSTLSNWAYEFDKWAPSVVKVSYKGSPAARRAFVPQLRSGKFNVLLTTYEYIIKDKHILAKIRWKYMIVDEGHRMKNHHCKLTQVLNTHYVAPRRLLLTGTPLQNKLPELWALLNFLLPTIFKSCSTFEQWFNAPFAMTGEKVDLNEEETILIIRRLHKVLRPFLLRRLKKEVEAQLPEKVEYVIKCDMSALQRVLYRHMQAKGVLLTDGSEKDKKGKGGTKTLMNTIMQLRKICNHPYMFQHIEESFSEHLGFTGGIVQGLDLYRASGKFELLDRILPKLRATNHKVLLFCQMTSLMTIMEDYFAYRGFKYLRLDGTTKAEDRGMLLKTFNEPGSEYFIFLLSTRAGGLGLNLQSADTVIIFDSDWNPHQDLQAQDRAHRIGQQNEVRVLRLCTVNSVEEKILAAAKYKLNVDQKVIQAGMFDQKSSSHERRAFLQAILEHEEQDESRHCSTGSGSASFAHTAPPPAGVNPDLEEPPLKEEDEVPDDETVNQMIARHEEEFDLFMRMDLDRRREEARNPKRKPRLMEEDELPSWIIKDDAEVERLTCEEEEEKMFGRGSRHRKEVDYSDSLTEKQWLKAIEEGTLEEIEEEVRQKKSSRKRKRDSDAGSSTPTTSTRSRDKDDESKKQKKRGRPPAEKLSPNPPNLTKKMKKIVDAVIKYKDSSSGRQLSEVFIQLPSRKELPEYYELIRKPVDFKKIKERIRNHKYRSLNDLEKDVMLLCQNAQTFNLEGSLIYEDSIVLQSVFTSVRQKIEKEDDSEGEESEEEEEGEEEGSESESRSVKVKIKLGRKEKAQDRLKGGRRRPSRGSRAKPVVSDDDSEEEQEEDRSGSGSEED

IC50 (BRG-1) [nM]	Emax (BRG-1) [%]	BRM Max % Inhibition (BRM) [%]	IC50 (BRM) [µM]	Structure (SMILES)
500 to 1000	78	99	< 0.1	CC(F)(F)c1cncc(-c2ccc3cnc(CNC(=O)c4ccc5c(c4)[C@](C)(C#N)COC5)cc3n2)n1 [Compound 299]
100 to 500	94	99	< 0.1	C[C@@]1(C#N)COCc2ccc(C(=O)NCc3cc4nc(-c5ccnc(N6CC[C@@H](F)C6)n5)ccc4cn3)cc21 [Compound 306]
100 to 500	82	97	< 0.1	C[C@@]1(C#N)COCc2ccc(C(=O)NCc3cc4nc(-c5ccn6ncc(C(F)F)c6n5)ccc4cn3)cc21 [Compound 309]
100 to 500	84	97	< 0.1	C[C@@]1(C#N)COCc2ccc(C(=O)NCc3cc4nc(-c5ccnc(N6C[C@H]7C[C@@H]6CO7)n5)ccc4cn3)cc21 [Compound 310]
100 to 500	95	99	< 0.1	C[C@@]1(C#N)COCc2ccc(C(=O)NCc3cc4nc(-c5cncc(N6CC[C@H](F)C6)n5)ccc4cn3)cc21 [Compound 311]
100 to 500	92	104	< 0.1	C[C@@]1(F)COCc2ccc(C(=O)NCc3cc4nc(-c5cncc(N6CCOCC6)n5)ccc4cn3)cc21 [Compound 319]
100 to 500	95	105	< 0.1	C[C@@]1(C#N)COCc2ccc(C(=O)NCc3cc4nc(-c5ccnc(N6CC7CC7C6)n5)ccc4cn3)cc21 (stereo partly shown) [Compound 321]
< 100	97	106	< 0.1	C[C@H]1CN(c2nccc(-c3ccc4cnc(CNC(=O)c5ccc6c(c5)[C@](C)(C#N)COC6)cc4n3)n2)CCO1 [Compound 322]
500 to 1000	81	105	0.1 to 0.5	CNC(=O)c1ccc(-c2ccc3cnc(CNC(=O)c4ccc5c(c4)[C@](C)(C#N)COC5)cc3n2)cc1 [Compound 324]
100 to 500	90	101	< 0.1	C[C@@]1(F)COCc2ccc(C(=O)NCc3cc4nc(-c5cncc(C6CC6)n5)ccc4cn3)cc21 [Compound 325]

Further lines, the molecule ahead of its results:

Structure (SMILES)	IC50 (BRG-1) [nM]	Emax (BRG-1) [%]	BRM Max % Inhibition (BRM) [%]	IC50 (BRM) [µM]
C[C@@]1(F)COCc2ccc(C(=O)NCc3cc4nc(-c5ccccc5)sc4cn3)cc21 [Compound 300]	500 to 1000	63	99	0.1 to 0.5
C[C@@]1(F)COCc2ncc(C(=O)NCc3cc4nc(-c5cncc(C6CC6)n5)ccc4cn3)cc21 [Compound 301]	100 to 500	86	96	< 0.1
C[C@@]1(F)COCc2ccc(C(=O)NCc3cc4nc(-c5cccc(C6(O)CCOCC6)n5)ccc4cn3)cc21 [Compound 302]	500 to 1000	58	93	0.1 to 0.5
C[C@@]1(C#N)COCc2ccc(C(=O)NCc3cc4nc(N5Cc6ccccc6C5=O)ccc4cn3)cc21 [Compound 303]	100 to 500	87	96	0.1 to 0.5
C[C@@]1(C#N)COCc2ccc(C(=O)NCc3cc4c(cn3)CCN(c3cccc(C(F)F)n3)C4)cc21 [Compound 304]	> 1000	38	86	0.1 to 0.5
Cn1cc(-c2ccc3cnc(CNC(=O)c4ccc5c(c4)[C@](C)(F)COC5)cc3n2)c(C#N)n1 [Compound 305]	> 1000	40	87	0.1 to 0.5
C[C@@]1(F)COCc2ccc(C(=O)NCc3cc4nc(-c5ccnc(N6CC[C@H]7COC[C@@H]7C6)n5)ccc4cn3)cc21 [Compound 307]	100 to 500	97	98	< 0.1
C[C@@]1(F)COCc2ccc(C(=O)NCc3cc4nc(-c5ccnc(N6CC[C@@H]7COC[C@H]7C6)n5)ccc4cn3)cc21 [Compound 308]	< 100	96	99	< 0.1
C[C@@]1(C#N)COCc2ccc(C(=O)NCc3cc4nc(N5CCN(C6CC6)C5=O)ccc4cn3)cc21 [Compound 312]	> 1000	46	83	0.1 to 0.5
C[C@@]1(C#N)COCc2ccc(C(=O)NCc3cc4nc(N5CCN(C6CCC6)C5=O)ccc4cn3)cc21 [Compound 313]	500 to 1000	72	92	0.1 to 0.5
C[C@@]1(C#N)COCc2ccc(C(=O)NCc3cc4c(cn3)CCN(c3cncc(N5CCOCC5)n3)C4)cc21 [Compound 314]	100 to 500	83	96	< 0.1
C[C@@]1(C#N)COCc2ccc(C(=O)NCc3cc4nc(N5CCCN(C6CC6)C5=O)ccc4cn3)cc21 [Compound 315]	> 1000	33	81	0.1 to 0.5
COCCOCCNC(=O)c1cccc(-c2ccc3cnc(CNC(=O)c4ccc5c(c4)[C@](C)(C#N)COC5)cc3n2)c1 [Compound 316]	> 1000	92	98	0.1 to 0.5
CN1CCC(NC(=O)c2cccc(-c3ccc4cnc(CNC(=O)c5ccc6c(c5)[C@](C)(C#N)COC6)cc4n3)c2)CC1 [Compound 317]	> 1000	96	100	0.1 to 0.5
C[C@@]1(F)COCc2ccc(C(=O)NCc3cc4nc(-c5ccc(=O)n(CC(F)F)n5)ccc4cn3)cc21 [Compound 318]	500 to 1000	55	107	0.1 to 0.5
CC(=O)N1CCOc2c(-c3ccc4cnc(CNC(=O)c5ccc6c(c5)[C@](C)(C#N)COC6)cc4n3)cccc21 [Compound 320]	500 to 1000	80	107	0.1 to 0.5
COCCNC(=O)c1ccc(-c2ccc3cnc(CNC(=O)c4ccc5c(c4)[C@](C)(C#N)COC5)cc3n2)cc1 [Compound 323]	500 to 1000	76	108	0.1 to 0.5
CN(C)c1nccc(N2CCc3cnc(CNC(=O)c4ccc5c(c4)[C@](C)(C#N)COC5)cc3C2)n1 [Compound 326]	500 to 1000	70	97	0.1 to 0.5
C[C@@]1(C#N)COCc2ccc(C(=O)NCc3cc4c(cn3)CCN(c3ccnc(C5CC5)n3)C4)cc21 [Compound 327]	> 1000	48	89	0.1 to 0.5
C[C@@]1(C#N)COCc2ccc(C(=O)NCc3cc4c(cn3)CCN(c3cncc(C5CC5)n3)C4)cc21 [Compound 328]	500 to 1000	81	99	< 0.1
COc1nn(C)cc1-c1ccc2nnc(CNC(=O)c3ccc4c(c3)[C@](C)(C#N)COC4)cc2c1 [Compound 329]	100 to 500	86	100	< 0.1
